This note sets out measurements from patent US8012991B2, “Pyridoindolone derivatives substituted in the 3-position by a phenyl, their preparation and their application in therapeutics” (Sanofi-Aventis, priority 2002, dated 2011).

`Cc1cc(C)cc(-c2cc3c4cc(C)ccc4n(C)c3n(C)c2=O)c1` [Compound 1, 3-(3,5-Dimethylphenyl)-1,6,9-trimethyl-1,9-dihydro-2H-pyrido[2,3-b]indol-2-one]: the melting point was found to be 210 °C.
To `Cc1ccc2c(c1)c1cc(-c3ccc(Cl)cc3Cl)c(=O)n(C)c1n2C` [Compound 2, 3-(2,4-Dichlorophenyl)-1,6,9-trimethyl-1,9-dihydro-2H-pyrido[2,3-b]indol-2-one] belongs 170 °C; to `COc1ccc2c(c1)c1cc(-c3ccc(Cl)cc3Cl)c(=O)n(C)c1n2C` [Compound 21, 3-(2,4-Dichlorophenyl)-6-methoxy-1,9-dimethyl-1,9-dihydro-2H-pyrido[2,3-b]indol-2-one], 130 °C.
